In patent US11926609B1, “6′-(3-chlorophenyl)-2′-ethoxy-3,4′-bipyridine-3′-carbonitrile as antimicrobial compounds” (KING FAISAL UNIVERSITY, priority 2023, dated 2024):

Legend:
Format in all cases: cell-based
[1] = test system: Aspergillus flavus; experiment: Agar plate disc-diffusion, antifungal inhibition zone; settings: Sabouraud's dextrose agar, 72 h, DMSO zone subtracted
Experimental: (§1) The agar plate disc-diffusion method was applied. Sterilized filter papers (6 mm in diameter) were wetted with 10 μL of a solution of 6′-(3-chlorophenyl)-2′-ethoxy-3,4′-bipyridine-3′-carbonitrile (4) to be tested, containing […], and the discs were allowed to air dry. The discs were then placed onto the surface of agar plates (nutrient agar for bacteria and Sabouraud's dextrose agar for fungi) seeded with the test organism. Each plate contained 15 mL of the agar medium, previously seeded with 0.2 mL of the broth culture of each organism pregrown for 18 hours. The plates were incubated at 37° C. for 48 h, and 72 h for fungi. The inhibition zones were measured in mm. Discs impregnated with DMSO were used as a control, and its inhibition zone was subtracted from the tested compound actual inhibition zone.
(§2) The results of the antimicrobial testing can be observed in Tables 1 and 2, below, using ciprofloxacin as a reference.

[2] = test system: Chrysosporium keratinophilum; experiment: as above; settings: Sabouraud's dextrose agar, 72 h, DMSO zone subtracted
Experimental: as §1, §2

[3] = test system: Staphylococcus aureus; experiment: Agar plate disc-diffusion, antibacterial inhibition zone; settings: Gram positive, nutrient agar, 37° C., 48 h, DMSO zone subtracted
Experimental: as §1, §2

[4] = test system: Pseudomonas aeruginosa; experiment: as above; settings: Gram negative, nutrient agar, 37° C., 48 h, DMSO zone subtracted
Experimental: as §1, §2

[5] = test system: Escherichia coli; experiment: as above; settings: Gram negative, nutrient agar, 37° C., 48 h, DMSO zone subtracted
Experimental: as §1, §2

[6] = test system: Bacillus Cereus; experiment: as above; settings: Gram positive, nutrient agar, 37° C., 48 h, DMSO zone subtracted
Experimental: as §1, §2

[7] = A = concentration of comp. = 10,000 μL
[8] = B = concentration of comp. = 30.000 μL
[9] = C = concentration of comp. = 50,000 μL

## CCOc1nc(-c2cccc(Cl)c2)cc(-c2cccnc2)c1C#N [compound 4, 6′-(3-chlorophenyl)-2′-ethoxy-3,4′-bipyridine-3′-carbonitrile]
[1]; [7]
  inhibition zone, Aspergillus flavus, A: 21 mm
[1]; [8]
  inhibition zone, Aspergillus flavus, B: 25 mm
[1]; [9]
  inhibition zone, Aspergillus flavus, C: 36 mm
[2]; [7]
  inhibition zone, Chrysosporium keratinophilum, A: 24 mm
[2]; [8]
  inhibition zone, Chrysosporium keratinophilum, B: 26 mm
[2]; [9]
  inhibition zone, Chrysosporium keratinophilum, C: 47 mm
[3]; [7]
  inhibition zone, Staphylococcus aureus, A: 19 mm
[3]; [8]
  inhibition zone, Staphylococcus aureus, B: 26 mm
[3]; [9]
  inhibition zone, Staphylococcus aureus, C: 33 mm
[4]; [7]
  inhibition zone, Pseudomonas aeruginosa, A: 22 mm
[4]; [8]
  inhibition zone, Pseudomonas aeruginosa, B: 29 mm
[4]; [9]
  inhibition zone, Pseudomonas aeruginosa, C: 38 mm
[5]; [7]
  inhibition zone, Escherichia coli, A: 26 mm
[5]; [8]
  inhibition zone, Escherichia coli, B: 36 mm
[5]; [9]
  inhibition zone, Escherichia coli, C: 48 mm
[6]; [7]
  inhibition zone, Bacillus Cereus, A: 26 mm
[6]; [8]
  inhibition zone, Bacillus Cereus, B: 28 mm
[6]; [9]
  inhibition zone, Bacillus Cereus, C: 40 mm
